Experimental data published in publication PMC11945486, “TAS1R2/TAS1R3 Single-Nucleotide Polymorphisms Affect Sweet Taste Receptor Activation by Sweeteners: The SWEET Project” (Nutrients, 2025).
No end group written: not given here.

Target: T1, human TAS1R2-S212G/TAS1R3-WT (Homo sapiens, UniProt Q7RTX0+Q8TE23, S212G)
T1 construct: expressed in transfected cells; host or cells: HEK293T-Gα16gust44
T1 sequence (Q8TE23 20-839 S212G): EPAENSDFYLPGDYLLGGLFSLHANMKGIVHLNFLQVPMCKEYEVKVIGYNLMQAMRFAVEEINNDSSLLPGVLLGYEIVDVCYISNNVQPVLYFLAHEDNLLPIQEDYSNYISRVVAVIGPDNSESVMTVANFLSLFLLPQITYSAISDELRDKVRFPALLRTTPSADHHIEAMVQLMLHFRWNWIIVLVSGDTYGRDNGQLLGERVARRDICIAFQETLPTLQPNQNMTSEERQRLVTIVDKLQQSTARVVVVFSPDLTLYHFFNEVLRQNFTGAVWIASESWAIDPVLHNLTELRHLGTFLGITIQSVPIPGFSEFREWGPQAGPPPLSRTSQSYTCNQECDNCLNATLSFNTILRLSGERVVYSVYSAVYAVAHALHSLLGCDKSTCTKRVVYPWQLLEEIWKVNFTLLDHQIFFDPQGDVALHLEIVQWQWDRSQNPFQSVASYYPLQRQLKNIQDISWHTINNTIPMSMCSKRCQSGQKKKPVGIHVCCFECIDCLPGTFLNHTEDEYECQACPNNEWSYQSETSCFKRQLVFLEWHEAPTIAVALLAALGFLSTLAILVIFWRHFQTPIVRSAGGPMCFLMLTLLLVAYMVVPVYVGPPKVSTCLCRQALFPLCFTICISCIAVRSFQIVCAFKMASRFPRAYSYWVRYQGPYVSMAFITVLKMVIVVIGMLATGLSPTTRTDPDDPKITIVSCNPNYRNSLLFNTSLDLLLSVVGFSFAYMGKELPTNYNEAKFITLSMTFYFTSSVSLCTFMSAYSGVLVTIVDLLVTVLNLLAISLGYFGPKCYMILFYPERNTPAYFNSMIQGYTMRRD
T1 sequence (Q7RTX0 21-852): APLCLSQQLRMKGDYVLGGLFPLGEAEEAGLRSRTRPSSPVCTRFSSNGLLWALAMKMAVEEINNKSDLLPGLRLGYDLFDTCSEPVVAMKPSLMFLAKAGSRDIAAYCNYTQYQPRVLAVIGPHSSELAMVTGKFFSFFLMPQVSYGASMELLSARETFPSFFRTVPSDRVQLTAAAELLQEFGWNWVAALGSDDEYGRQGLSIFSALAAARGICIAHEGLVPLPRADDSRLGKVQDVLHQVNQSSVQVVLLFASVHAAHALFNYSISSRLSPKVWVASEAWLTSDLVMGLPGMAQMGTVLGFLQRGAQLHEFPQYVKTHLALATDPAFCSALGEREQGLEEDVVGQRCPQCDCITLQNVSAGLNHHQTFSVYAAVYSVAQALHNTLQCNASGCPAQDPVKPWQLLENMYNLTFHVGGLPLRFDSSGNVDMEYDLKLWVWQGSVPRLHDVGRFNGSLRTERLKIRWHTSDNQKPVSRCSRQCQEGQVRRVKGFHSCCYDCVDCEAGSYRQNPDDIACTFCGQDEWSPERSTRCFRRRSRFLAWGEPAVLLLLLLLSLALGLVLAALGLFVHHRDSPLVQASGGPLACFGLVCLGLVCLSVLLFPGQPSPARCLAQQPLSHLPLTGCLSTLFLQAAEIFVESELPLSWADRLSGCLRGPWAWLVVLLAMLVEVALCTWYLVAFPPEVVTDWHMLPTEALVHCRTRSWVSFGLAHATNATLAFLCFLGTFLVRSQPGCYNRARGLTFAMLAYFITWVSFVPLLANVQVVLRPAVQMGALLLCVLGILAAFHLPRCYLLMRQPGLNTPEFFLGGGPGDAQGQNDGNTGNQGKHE
Assay: Calcium mobilisation assay, TAS1R2 variant S212G with TAS1R3-WT
Assay type: cell-based
Conditions: for Max ΔF/F0: maximal signal amplitude
Source text: The coding sequences for TAS1R2 and TAS1R3 were commercially synthesised, and the human codon was optimised for expression in human cells. The coding sequences of human TAS1R2 and TAS1R3 were subcloned and inserted into the mammalian expression vectors pcDNA6/myc-HisA and pcDNA4/myc-HisA (Invitrogen; Thermo Fisher Scientific; Illkirch, France) between the EcoRI and NotI restriction sites, generating the plasmids pcDNA6-TAS1R2 and pcDNA4-TAS1R3, respectively. To increase protein expression in mammalian cells, an upstream start codon was used, which was a sequence called MAX, corresponding to the QBI SP163 element also described in pcDNA4-HisMax (Invitrogen; Thermo Fisher Scientific; Illkirch, France). To measure the expression level of the receptor by immunohistochemistry, we used the FLAG sequence ([…]) in the C-terminal position, which encodes the FLAG tag epitope. SNP variants of TAS1R2 and TAS1R3 were constructed based on […], respectively, using site-directed mutagenesis (Genewiz; Leipzig, Germany).
The HEK293T cells were kindly provided by Jay P. Slack (Givaudan Flavors Corporation; Cincinnati, OH, USA). HEK293T cells stably transfected with Gα16gust44 [43, 67] were seeded in poly-D-lysine-coated clear-bottom black 96-well plates (0.35 × 10^5 cells/well) in high-glucose DMEM supplemented with 2 mM GlutaMAX, 10% dialysed foetal bovine serum with penicillin/streptomycin and G418 (400 μg/mL) at 37 °C and 6.3% CO2 in a humidified atmosphere as previously reported. […] As a negative control, HEK293T cells were mock-transfected with the empty expression vector. After a further 24 h of incubation, the HEK293T cells were washed with C1 buffer (130 mM NaCl, 5 mM KCl, 10 mM HEPES pH 7.4 and 2 mM CaCl2). The 96-well plates containing the cells were then stimulated with sweet-tasting compounds. […] Different concentration ranges were tested depending on the sweet compound injected. The Ca^2+ changes were expressed as fractional changes in fluorescent light intensity: ΔF/F = (F − F0)/F0, where F was the fluorescent light intensity at each point, and F0 was the value of emitted fluorescent light prior to stimulus application. To calculate dose–response relationships, the changes in fluorescence upon stimulus application were averaged, mock-subtracted and baseline-corrected. The dose–response data obtained were adjusted using a 4-parameter logistic equation. The half-maximal effective concentrations (EC50 values) and maximal signal amplitudes were calculated using SigmaPlot software (version 15.0) (Systat Software; San Jose, CA, USA).
For in vitro calcium mobilisation assay performed on hTAS1R2-SNPs, hTAS1R3-SNPs and mTAS1R3-I60T, 6 to 7 concentrations were tested for each sweet compound, plus buffer alone. All concentration–receptor combinations were measured in duplicate, and each experiment was repeated at least 4 times (8 wells/concentration). Results were expressed for each concentration as ΔF/F mean ± SEM and represented as dose–response curves.

Molecule | EC50 [µM] | R1 = Variant EC50/WT EC50 | Max ΔF/F0
OC[C@H]1O[C@H](O[C@]2(CCl)O[C@H](CCl)[C@@H](O)[C@@H]2O)[C@H](O)[C@@H](O)[C@H]1Cl [Sucralose] | 96 ± 6 | 1.1 | 0.64 ± 0.02
O=S(=O)(O)NC1CCCCC1 [Cyclamate, cyclamate] | 1770 ± 44 | – | –
C=C(C)[C@@H]1CC=C(/C=N/O)CC1 [Perillartine, perillartine] | 22.9 ± 0.6 | 1.3 | 1.30 ± 0.01
C=C1C[C@@]23CC[C@H]4[C@@](C)(CCC[C@@]4(C)C(=O)O[C@@H]4O[C@H](CO)[C@@H](O)[C@H](O[C@@H]5O[C@H](CO)[C@@H](O)[C@H](O)[C@H]5O)[C@H]4O[C@@H]4O[C@H](CO)[C@@H](O)[C@H](O)[C@H]4O)[C@@H]2CC[C@]1(O[C@@H]1O[C@H](CO)[C@@H](O)[C@H](O[C@@H]2O[C@H](CO)[C@@H](O)[C@H](O)[C@H]2O)[C@H]1O[C@@H]1O[C@H](CO)[C@@H](O)[C@H](O)[C@H]1O)C3 [Rebaudioside M, rebaudioside M] | 23.2 ± 1.1 | 1.4 | 1.14 ± 0.02
COc1ccc(CCC(=O)c2c(O)cc(O[C@@H]3O[C@H](CO)[C@@H](O)[C@H](O)[C@H]3O[C@@H]3O[C@@H](C)[C@H](O)[C@@H](O)[C@H]3O)cc2O)cc1O [NHDC, neohesperidin dihydrochalcone] | 90.7 ± 8.1 | 1.2 | 0.84 ± 0.03
thaumatin | – | 0.8 | 0.6 ± 0.01
CC1=CC(=O)NS(=O)(=O)O1 [Acesulfame K, acesulfame K] | 438 ± 25 | 0.6 | 0.28 ± 0.01
brazzein (QDKCKKVYENYPVSKCQLANQCNYDCKLDKHARSGECFYDEKRNLQCICDYCEY; ends and bridges not checked; cysteine pairing not given here; UniProt P56552 1-54, looked up) [sweet-tasting protein obtained by recombinant production using the yeast Pichia pastoris] | – | 1.4 | 1.18 ± 0.02
C[C@H](CC[C@@H](O[C@@H]1O[C@H](CO[C@@H]2O[C@H](CO)[C@@H](O)[C@H](O)[C@H]2O)[C@@H](O)[C@H](O)[C@H]1O[C@@H]1O[C@H](CO)[C@@H](O)[C@H](O)[C@H]1O)C(C)(C)O)[C@H]1CC[C@@]2(C)[C@@H]3CC=C4[C@@H](CC[C@H](O[C@@H]5O[C@H](CO[C@@H]6O[C@H](CO)[C@@H](O)[C@H](O)[C@H]6O)[C@@H](O)[C@H](O)[C@H]5O)C4(C)C)[C@]3(C)[C@H](O)C[C@]12C [Mogroside V, mogroside V] | 21.2 ± 2.1 | 1.2 | 1.32 ± 0.05
COC(=O)[C@H](Cc1ccccc1)NC(=O)[C@H](CC(=O)O)NCCC(C)(C)C [Neotame] | 0.99 ± 0.05 | 1.2 | 0.63 ± 0.01
thaumatin (protein, Eight disulfides, sweet-tasting plant protein, E957) ATFEIVNRCSYTVWAAASKGDAALDAGGRQLNSGESWTINVEPGTKGGKIWARTDCYFDDSGSGICKTGDCGGLLRCKRFGRPPTTLAEFSLNQYGKDYIDISNIKGFNVPMDFSPTTRGCRGVRCAADIVGQCPAKLKAPGGGCNDACTVFQTSEYCCTTGKCGPTEYSRFFKRLCPDAFSYVLDKPTTVTCPGSSNYRVTFCPTA | 6.1 ± 0.2 | – | –
